Experimental data from patent US7129273B2, “Dicreatine Malate” (Creative Compounds, LLC, priority 2003, dated 2006).

Legend:
[1] = metabolic properties and overall effectiveness as a supplement, compared with other creatine forms; assay type: in vivo
burn victims = details: compared with molar equivalents of ornithine base and alpha-ketoglutaric acid taken separately; cited from earlier work
[2] = problems associated with creatine supplementation (cramping, bloating); assay type: in vivo; details: compared with other creatine supplementation
[3] = absorption / bioavailability after oral supplementation; assay type: in vivo
ATP production = assay: production of ATP (high energy phosphate molecules); details: compared with additive effects of creatine and malic acid taken separately
[4] = compared to creatine monohydrate
[5] = compared with any other form of creatine or malic acid supplement currently available

CN(CC(=O)O)C(=N)N.O=C(O)CC(O)C(=O)O [monocreatine malate, reference compound]
effect compared with dicreatine malate ([1]; comparison with dicreatine malate, inventors' experience): inferior to the dicreatine malate

NCCC[C@H](N)C(=O)O [ornithine alpha-ketoglutarate]
anti-catabolic effect (burn victims): strong anti-catabolic effect on burn victims far greater in effect than what is produced by merely combining the effects of the molar equivalents

dicreatine malate
decreasing adipose stores [1, 4]: enhanced efficacy for decreasing adipose stores
increasing cell volumization [1, 4]: enhanced efficacy for increasing cell volumization
increasing muscle mass [1, 4]: enhanced efficacy for increasing muscle mass
increasing overall strength and endurance [1, 4]: enhanced efficacy for increasing for increasing overall strength and endurance
effectiveness [1, 5]: much more effective
problems associated with creatine supplementation (cramping, bloating, bioavailability issues) [2]: decreasing some of the problems associated with other creatine supplementation
absorption [3, 5]: more readily absorbed
bioavailabilities of the creatine and malic acid moieties ([3]; compared with individual bioavailabilities of creatine monohydrate and malic acid): increase the bioavailablities of both the creatine and malic acid moieties
production of ATP (ATP production): increases the production of ATP to a much greater extent than what would be expected by the mere additive effects
